# From ChEMBL document CHEMBL1134625 (J Med Chem, 2001)
# How the values were obtained:
# [1] = biological target: Melatonin receptor type 1A (Homo sapiens, UniProt P48039)
# D(1A) dopamine receptor = D(1A) dopamine receptor (Homo sapiens, UniProt P21728)
# [2] = biological target: 5-hydroxytryptamine receptor 1B (Homo sapiens, UniProt P28222)
# Translocator protein = Translocator protein (Homo sapiens, UniProt P30536)
# [3] = biological target: Sodium-dependent noradrenaline transporter (Homo sapiens, UniProt P23975)
# [4] = biological target: T1, 5-hydroxytryptamine receptor 1A (Homo sapiens, UniProt P08908)
# T1 sequence (P08908 whole entry): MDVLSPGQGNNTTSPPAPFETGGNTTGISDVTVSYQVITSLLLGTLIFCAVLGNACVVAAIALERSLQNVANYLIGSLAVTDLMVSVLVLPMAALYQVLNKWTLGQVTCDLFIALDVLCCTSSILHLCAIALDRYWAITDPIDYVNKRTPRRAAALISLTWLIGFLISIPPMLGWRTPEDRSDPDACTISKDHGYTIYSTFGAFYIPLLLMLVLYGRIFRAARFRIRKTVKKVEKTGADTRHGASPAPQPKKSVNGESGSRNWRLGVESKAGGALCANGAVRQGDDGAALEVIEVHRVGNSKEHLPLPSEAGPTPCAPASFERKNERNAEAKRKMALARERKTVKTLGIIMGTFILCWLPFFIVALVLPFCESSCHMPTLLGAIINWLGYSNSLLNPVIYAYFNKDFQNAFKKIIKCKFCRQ
# Substance-K receptor = Substance-K receptor (Homo sapiens, UniProt P21452)
# Adenosine receptor A1 = Adenosine receptor A1 (Homo sapiens, UniProt P30542)
# D(1B) dopamine receptor = D(1B) dopamine receptor (Homo sapiens, UniProt P21918)
# Adenosine receptor A3 = biological target: T2, Adenosine receptor A3 (Homo sapiens, UniProt P0DMS8)
# T2 sequence (P0DMS8 whole entry): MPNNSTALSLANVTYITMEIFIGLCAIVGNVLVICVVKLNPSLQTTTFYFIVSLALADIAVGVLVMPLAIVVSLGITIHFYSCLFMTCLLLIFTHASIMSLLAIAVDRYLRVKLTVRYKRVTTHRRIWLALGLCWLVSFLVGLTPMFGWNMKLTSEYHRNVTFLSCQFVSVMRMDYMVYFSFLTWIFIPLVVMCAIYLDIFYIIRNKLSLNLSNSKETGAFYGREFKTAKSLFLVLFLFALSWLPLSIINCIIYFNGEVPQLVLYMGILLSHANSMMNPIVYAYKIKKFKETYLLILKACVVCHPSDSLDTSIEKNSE
# Vasopressin V1a receptor = Vasopressin V1a receptor (Homo sapiens, UniProt P37288)
# [5] = biological target: T3, Adrenergic receptor alpha-1 (Homo sapiens, UniProt P35348+P25100+P35368); type: protein assay
# T3 sequence (P35348 whole entry): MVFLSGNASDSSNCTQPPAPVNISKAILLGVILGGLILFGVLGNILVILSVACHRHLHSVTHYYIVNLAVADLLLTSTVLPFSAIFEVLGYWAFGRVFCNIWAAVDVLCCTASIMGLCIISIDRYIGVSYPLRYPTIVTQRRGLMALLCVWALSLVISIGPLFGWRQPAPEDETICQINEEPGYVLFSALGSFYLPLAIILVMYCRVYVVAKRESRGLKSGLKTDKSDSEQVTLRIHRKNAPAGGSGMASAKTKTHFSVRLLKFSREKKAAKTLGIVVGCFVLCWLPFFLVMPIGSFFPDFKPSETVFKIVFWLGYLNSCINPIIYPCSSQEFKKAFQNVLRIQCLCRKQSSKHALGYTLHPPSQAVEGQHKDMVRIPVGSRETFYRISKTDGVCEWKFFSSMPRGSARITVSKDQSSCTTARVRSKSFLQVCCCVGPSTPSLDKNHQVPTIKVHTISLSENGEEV
# T3 sequence (P25100 whole entry): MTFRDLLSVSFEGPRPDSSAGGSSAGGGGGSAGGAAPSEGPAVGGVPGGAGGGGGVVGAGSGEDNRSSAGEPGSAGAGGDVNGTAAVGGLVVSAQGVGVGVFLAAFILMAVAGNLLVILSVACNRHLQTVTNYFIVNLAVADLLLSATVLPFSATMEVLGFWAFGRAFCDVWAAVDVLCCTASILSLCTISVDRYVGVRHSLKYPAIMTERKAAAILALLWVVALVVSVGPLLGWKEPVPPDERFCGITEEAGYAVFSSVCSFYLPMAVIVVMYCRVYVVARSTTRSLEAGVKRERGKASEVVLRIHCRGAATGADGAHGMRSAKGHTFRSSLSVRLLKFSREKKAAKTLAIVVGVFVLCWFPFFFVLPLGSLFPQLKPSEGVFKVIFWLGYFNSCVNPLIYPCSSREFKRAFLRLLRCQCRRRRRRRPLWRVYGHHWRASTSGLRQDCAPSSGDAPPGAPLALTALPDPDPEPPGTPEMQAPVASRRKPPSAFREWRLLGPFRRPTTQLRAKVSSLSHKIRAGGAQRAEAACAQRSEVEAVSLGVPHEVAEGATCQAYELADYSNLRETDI
# T3 sequence (P35368 whole entry): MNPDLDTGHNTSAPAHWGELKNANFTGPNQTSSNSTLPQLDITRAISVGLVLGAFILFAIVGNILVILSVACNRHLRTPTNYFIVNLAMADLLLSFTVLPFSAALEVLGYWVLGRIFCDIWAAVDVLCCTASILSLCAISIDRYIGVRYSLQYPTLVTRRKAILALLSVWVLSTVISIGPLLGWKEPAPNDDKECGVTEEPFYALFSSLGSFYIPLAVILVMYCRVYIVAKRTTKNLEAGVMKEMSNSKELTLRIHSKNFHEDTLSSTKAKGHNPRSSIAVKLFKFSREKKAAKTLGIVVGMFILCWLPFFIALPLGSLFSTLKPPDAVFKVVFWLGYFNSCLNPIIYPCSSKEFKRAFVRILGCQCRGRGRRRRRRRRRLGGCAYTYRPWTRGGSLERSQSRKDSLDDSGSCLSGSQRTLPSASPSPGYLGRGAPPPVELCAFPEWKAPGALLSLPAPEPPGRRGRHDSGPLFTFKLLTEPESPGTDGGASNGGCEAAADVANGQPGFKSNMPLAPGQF
# Substance-K receptor, sequence (P21452 whole entry): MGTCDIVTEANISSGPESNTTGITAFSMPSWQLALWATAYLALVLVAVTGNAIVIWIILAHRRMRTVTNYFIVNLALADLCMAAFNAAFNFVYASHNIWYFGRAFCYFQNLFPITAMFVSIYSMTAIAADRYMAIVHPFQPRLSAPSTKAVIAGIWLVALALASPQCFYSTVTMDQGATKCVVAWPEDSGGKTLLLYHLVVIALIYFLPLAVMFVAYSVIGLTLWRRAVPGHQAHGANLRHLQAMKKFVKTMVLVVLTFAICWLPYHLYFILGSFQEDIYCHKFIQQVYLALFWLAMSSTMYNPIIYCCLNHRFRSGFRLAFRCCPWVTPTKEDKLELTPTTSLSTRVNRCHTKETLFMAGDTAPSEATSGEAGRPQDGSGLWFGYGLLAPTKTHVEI
# 5-hydroxytryptamine receptor 1B, sequence (P28222 whole entry): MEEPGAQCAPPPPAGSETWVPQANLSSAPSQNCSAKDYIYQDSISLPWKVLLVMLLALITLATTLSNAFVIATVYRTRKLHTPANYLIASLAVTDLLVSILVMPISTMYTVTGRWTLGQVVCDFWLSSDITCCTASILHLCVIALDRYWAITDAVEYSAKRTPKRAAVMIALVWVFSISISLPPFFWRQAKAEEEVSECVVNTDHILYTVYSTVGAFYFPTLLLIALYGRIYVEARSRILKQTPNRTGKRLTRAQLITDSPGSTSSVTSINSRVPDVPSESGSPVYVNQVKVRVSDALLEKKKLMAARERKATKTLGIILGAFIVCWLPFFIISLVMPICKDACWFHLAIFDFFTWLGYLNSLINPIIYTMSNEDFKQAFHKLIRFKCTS
# D(1B) dopamine receptor, sequence (P21918 whole entry): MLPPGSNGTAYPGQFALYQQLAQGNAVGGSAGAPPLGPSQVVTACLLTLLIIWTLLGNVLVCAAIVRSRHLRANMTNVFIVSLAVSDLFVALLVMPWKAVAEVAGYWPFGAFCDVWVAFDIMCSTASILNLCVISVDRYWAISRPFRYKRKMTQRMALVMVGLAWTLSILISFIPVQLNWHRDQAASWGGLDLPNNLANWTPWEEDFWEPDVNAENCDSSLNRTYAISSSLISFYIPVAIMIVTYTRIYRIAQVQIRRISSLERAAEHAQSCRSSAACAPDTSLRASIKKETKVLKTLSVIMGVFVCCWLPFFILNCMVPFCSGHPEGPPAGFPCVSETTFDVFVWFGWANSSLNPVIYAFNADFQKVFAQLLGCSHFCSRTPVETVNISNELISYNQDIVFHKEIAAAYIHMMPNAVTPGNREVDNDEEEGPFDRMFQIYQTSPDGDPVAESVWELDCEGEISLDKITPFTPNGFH
# Adenosine receptor A1, sequence (P30542 whole entry): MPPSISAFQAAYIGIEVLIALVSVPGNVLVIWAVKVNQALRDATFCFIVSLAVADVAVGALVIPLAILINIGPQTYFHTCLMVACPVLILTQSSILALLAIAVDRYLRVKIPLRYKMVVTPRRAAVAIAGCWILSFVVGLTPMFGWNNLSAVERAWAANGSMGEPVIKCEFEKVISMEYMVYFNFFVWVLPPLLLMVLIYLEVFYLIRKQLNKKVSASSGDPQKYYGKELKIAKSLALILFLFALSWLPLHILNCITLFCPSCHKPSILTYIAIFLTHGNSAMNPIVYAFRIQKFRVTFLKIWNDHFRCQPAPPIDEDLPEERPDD
# Vasopressin V1a receptor, sequence (P37288 whole entry): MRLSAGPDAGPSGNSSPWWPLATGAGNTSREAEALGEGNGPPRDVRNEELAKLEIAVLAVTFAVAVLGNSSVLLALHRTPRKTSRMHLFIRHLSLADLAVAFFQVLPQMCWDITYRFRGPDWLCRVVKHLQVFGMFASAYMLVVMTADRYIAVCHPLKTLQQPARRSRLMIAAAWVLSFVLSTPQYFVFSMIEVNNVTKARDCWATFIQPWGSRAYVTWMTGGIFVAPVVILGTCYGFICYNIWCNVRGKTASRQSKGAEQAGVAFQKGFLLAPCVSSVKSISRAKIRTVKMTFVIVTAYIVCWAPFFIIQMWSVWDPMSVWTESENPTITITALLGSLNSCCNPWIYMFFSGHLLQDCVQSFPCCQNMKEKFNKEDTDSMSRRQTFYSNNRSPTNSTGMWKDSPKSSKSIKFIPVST
# Melatonin receptor type 1A, sequence (P48039 whole entry): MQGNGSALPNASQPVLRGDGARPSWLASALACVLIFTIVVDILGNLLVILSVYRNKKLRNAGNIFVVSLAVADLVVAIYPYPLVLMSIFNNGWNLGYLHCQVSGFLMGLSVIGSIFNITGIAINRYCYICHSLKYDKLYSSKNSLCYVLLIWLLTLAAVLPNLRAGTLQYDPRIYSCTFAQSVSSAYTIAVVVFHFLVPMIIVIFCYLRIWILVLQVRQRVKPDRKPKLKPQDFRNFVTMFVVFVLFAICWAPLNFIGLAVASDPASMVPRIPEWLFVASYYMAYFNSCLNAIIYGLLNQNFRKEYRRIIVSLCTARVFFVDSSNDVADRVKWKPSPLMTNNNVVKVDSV
# Sodium-dependent noradrenaline transporter, sequence (P23975 whole entry): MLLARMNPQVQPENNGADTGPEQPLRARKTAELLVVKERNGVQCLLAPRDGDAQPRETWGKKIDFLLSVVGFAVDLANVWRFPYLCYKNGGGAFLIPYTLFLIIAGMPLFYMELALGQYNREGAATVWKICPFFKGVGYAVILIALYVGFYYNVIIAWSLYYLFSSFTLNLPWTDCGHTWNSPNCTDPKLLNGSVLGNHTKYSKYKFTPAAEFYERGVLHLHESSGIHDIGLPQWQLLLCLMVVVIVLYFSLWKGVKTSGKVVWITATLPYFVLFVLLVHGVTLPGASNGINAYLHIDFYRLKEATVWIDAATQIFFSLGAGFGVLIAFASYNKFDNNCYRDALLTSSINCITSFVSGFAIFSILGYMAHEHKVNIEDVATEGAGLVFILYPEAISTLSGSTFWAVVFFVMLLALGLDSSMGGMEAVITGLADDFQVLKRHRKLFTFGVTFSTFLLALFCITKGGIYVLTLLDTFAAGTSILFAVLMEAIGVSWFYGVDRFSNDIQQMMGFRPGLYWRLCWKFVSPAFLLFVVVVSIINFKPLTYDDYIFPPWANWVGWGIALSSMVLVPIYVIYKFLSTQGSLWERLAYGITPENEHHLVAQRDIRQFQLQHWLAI
# D(1A) dopamine receptor, sequence (P21728 whole entry): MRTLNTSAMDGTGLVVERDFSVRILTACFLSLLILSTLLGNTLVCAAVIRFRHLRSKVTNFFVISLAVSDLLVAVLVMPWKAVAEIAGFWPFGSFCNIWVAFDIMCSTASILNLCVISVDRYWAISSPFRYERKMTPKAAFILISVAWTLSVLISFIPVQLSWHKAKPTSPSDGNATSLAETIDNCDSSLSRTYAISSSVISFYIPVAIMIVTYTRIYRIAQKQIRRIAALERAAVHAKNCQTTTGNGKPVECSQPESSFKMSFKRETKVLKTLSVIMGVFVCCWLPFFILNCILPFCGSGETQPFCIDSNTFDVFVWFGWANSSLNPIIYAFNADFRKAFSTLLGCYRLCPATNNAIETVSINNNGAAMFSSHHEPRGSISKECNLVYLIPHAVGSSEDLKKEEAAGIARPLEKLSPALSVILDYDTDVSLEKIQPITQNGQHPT
# Translocator protein, sequence (P30536 whole entry): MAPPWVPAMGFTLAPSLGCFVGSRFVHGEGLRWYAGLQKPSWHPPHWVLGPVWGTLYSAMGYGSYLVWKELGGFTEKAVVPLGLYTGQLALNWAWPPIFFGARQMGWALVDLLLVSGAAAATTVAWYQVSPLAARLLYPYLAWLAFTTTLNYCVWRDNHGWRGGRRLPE
compound,measurement,setting,value
O=C(OCc1cc2c(cc1Cl)OCO2)N1CCC(n2c(O)nc3ccccc32)CC1,IC50,[1],1740 nM
same,IC50,D(1A) dopamine receptor,7580 nM
same,IC50,[2],708 nM
same,IC50,Translocator protein,1040 nM
same,IC50,[3],3020 nM
same,IC50,[4],4650 nM
same,IC50,Substance-K receptor,4420 nM
same,IC50,Adenosine receptor A1,2640 nM
same,IC50,D(1B) dopamine receptor,4890 nM
same,IC50,Adenosine receptor A3,1780 nM
same,IC50,Vasopressin V1a receptor,2220 nM
same,IC50,[5],1340 nM
